Patent publication US20120059162A1, “FUSED IMIDAZOLE DERIVATIVE HAVING TTK INHIBITORY ACTION” (Oncotherapy Science, Inc., priority 2009, published 2012)
Where two headings read alike, the source gives them in different places.

Tested on: A549
Assay: A549 assay: screening of cancer cell growth inhibiting compound
Format: cell-based
Conditions: Homo sapiens
Experimental: Screening of Cancer Cell Growth Inhibiting Compound
A cell suspension solution (RERF-LC-AI, A549: 1×10^4/ml, MRC5: 3×10^4/ml and 1×10^5/ml) adjusted to an appropriate concentration with D-MEM (hereinafter, referred to as a culture solution and manufactured by Nacalai Tesque Inc.) supplemented with 10% FBS (HyClone) was added to the wells of a 96-well plate (hereinafter, well plate) at a rate of 100 μL/well and incubated in a CO2 incubator at 37° C. for a day. […] Next, cells were added to each well of the well plate prepared and the above compound dilution solution was added at a rate of 100 μL/well to obtain 200 μL/well. Thereafter, the cells were incubated in the CO2 incubator at 37° C. for further three days. To each well of the well plate, 10 μL of a WST-8 kit (Kishida Chemical Co., Ltd.) solution for counting the number of cells was added and a color reaction was performed in the CO2 incubator for 1 to 4 hours. After the absorbance at 450 nm (reference wavelength: 620 nm) was measured by a microplate reader, suppressing action of the test substance was calculated based on the absorbance value in the absence of a test substance.

[1] = A549, 72 h, read-out: A549 IC50 (μM)
[2] = 72 h, A549 cells, three days, WST-8, read-out: A549 IC50

| IC50 [2] [µM] | SMILES | IC50 [1] [µM] |
| --- | --- | --- |
|  | O=C(NC1CC1)c1ccc(-c2cnc3c(NCC4CCOCC4)nccn23)cc1 [Example 1-1, N-cyclopropyl-4-(8-((tetrahydro-2H-pyran-4-yl)methylamino)imidazo[1,2-a]pyrazin-3-yl)benzamide] | 1 to 10 |
|  | O=C(NC1CC1)c1ccc(-c2cnc3c(NCC4CC4)nccn23)cc1 [Example 1-36] | 1 to 10 |
|  | CCCNc1nccn2c(-c3ccc(C(=O)NC4CC4)cc3)cnc12 [Example 1-37] | 1 to 10 |
|  | CC(C)CCNc1nccn2c(-c3ccc(C(=O)NC4CC4)cc3)cnc12 [Example 1-43] | 1 to 10 |
|  | CC(C)CNc1nc(-c2ccccc2)cn2c(-c3ccc(C(=O)NC4CC4)cc3)cnc12 [Example 1-101] | 0.5 to 1 |
| 0.5 to 1 | CC(C)CNc1nc(-c2ccsc2)cn2c(-c3ccc(C(=O)NC4CC4)cc3)cnc12 [Example 1-103] |  |
| 0.5 to 1 | CC(C)CNc1nc(-c2cccc(C#N)c2)cn2c(-c3ccc(C(=O)NC4CC4)cc3)cnc12 [Example 1-106] |  |
| 0.5 to 1 | CC(C)CNc1nc(-c2cccnc2)cn2c(-c3ccc(C(=O)NC4CC4)cc3)cnc12 [Example 1-107] |  |
| 1 to 10 | CC(C)CNc1nc(C2=CCCC2)cn2c(-c3ccc(C(=O)NC4CC4)cc3)cnc12 [Example 1-108] |  |
| 0.5 to 1 | CC(C)CNc1nc(-c2ccc3occc(=O)c3c2)cn2c(-c3ccc(C(=O)NC4CC4)cc3)cnc12 [Example 1-110] |  |
| 0.05 to 0.5 | CC(C)CNc1nc(-c2ccncc2)cn2c(-c3ccc(C(=O)NC4CC4)cc3)cnc12 [Example 1-111] |  |
| 0.05 to 0.5 | CC(C)CNc1nc(-c2ccc(N)cc2)cn2c(-c3ccc(C(=O)NC4CC4)cc3)cnc12 [Example 1-114] |  |
| 1 to 10 | CC(C)CNc1nc(-c2ccc(S(=O)(=O)N3CCCC3)cc2)cn2c(-c3ccc(C(=O)NC4CC4)cc3)cnc12 [Example 1-115] |  |
| 0.5 to 1 | CC(C)CNc1nc(-c2ccc(S(=O)(=O)C(C)C)cc2)cn2c(-c3ccc(C(=O)NC4CC4)cc3)cnc12 [Example 1-116] |  |
| 1 to 10 | CC(C)CNc1nc(-c2ccc(OCCN3CCOCC3)cc2)cn2c(-c3ccc(C(=O)NC4CC4)cc3)cnc12 [Example 1-117] |  |
| 0.5 to 1 | CC(C)CNc1nc(-c2ccc(NC(=O)NCc3ccco3)cc2)cn2c(-c3ccc(C(=O)NC4CC4)cc3)cnc12 [Example 1-118] |  |
| 0.5 to 1 | CC(C)CNc1nc(-c2ccc(CNS(C)(=O)=O)cc2)cn2c(-c3ccc(C(=O)NC4CC4)cc3)cnc12 [Example 1-119] |  |
| 1 to 10 | CC(C)CNc1nc(-c2ccc(O)c(Cl)c2)cn2c(-c3ccc(C(=O)NC4CC4)cc3)cnc12 [Example 1-120] |  |
| 0.5 to 1 | CC(C)CNc1nc(-c2ccc(NC(=O)N3CCCC3)cc2)cn2c(-c3ccc(C(=O)NC4CC4)cc3)cnc12 [Example 1-121] |  |
| 1 to 10 | CC(C)CNc1nc(-c2cccc(C(=O)NCCCN(C)C)c2)cn2c(-c3ccc(C(=O)NC4CC4)cc3)cnc12 [Example 1-122] |  |
| 0.05 to 0.5 | CC(C)CNc1nc(-c2ccccc2N)cn2c(-c3ccc(C(=O)NC4CC4)cc3)cnc12 [Example 1-123] |  |

| IC50 [2] [µM] | SMILES | IC50 [1] [µM] |
| --- | --- | --- |
| 0.5 to 1 | CC(C)CNc1nc(-c2cccc(N)c2)cn2c(-c3ccc(C(=O)NC4CC4)cc3)cnc12 [Example 1-124] |  |
| 1 to 10 | CC(C)CNc1nc(-c2ccc(C(=O)c3ccccc3)cc2)cn2c(-c3ccc(C(=O)NC4CC4)cc3)cnc12 [Example 1-125] |  |
| 1 to 10 | CC(C)CNc1nc(-c2cccc(CN3CCOCC3)c2)cn2c(-c3ccc(C(=O)NC4CC4)cc3)cnc12 [Example 1-127] |  |
| 1 to 10 | CC(C)CNc1nc(-c2cccc(C(=O)NCCCN3CCN(C)CC3)c2)cn2c(-c3ccc(C(=O)NC4CC4)cc3)cnc12 [Example 1-138] |  |
| 0.5 to 1 | CC(C)CNc1nc(-c2cccc(C(=O)NCCN3CCOCC3)c2)cn2c(-c3ccc(C(=O)NC4CC4)cc3)cnc12 [Example 1-139] |  |
| 0.05 to 0.5 | COCCNC(=O)c1cccc(-c2cn3c(-c4ccc(C(=O)NC5CC5)cc4)cnc3c(NCC(C)C)n2)c1 [Example 1-140] |  |
| 1 to 10 | CC(C)CNc1nc(-c2cccc(C(=O)NCCS(C)(=O)=O)c2)cn2c(-c3ccc(C(=O)NC4CC4)cc3)cnc12 [Example 1-141] |  |
| 0.5 to 1 | CC(C)CNc1nc(-c2cccc(C(N)=O)c2)cn2c(-c3ccc(C(=O)NC4CC4)cc3)cnc12 [Example 1-143] |  |
| 1 to 10 | CC(C)CNc1nc(-c2cccc(C(=O)N3CCN(C)CC3)c2)cn2c(-c3ccc(C(=O)NC4CC4)cc3)cnc12 [Example 1-144] |  |
| 1 to 10 | CC(C)CNc1nc(-c2ccc(C(=O)NCCN3CCOCC3)cc2)cn2c(-c3ccc(C(=O)NC4CC4)cc3)cnc12 [Example 1-147] |  |
| 0.5 to 1 | COCCNC(=O)c1ccc(-c2cn3c(-c4ccc(C(=O)NC5CC5)cc4)cnc3c(NCC(C)C)n2)cc1 [Example 1-148] |  |
| 1 to 10 | CC(C)CNc1nc(-c2ccc(C(=O)NCCS(C)(=O)=O)cc2)cn2c(-c3ccc(C(=O)NC4CC4)cc3)cnc12 [Example 1-149] |  |
| 0.05 to 0.5 | CC(C)CNc1nc(-c2ccc(C(N)=O)cc2)cn2c(-c3ccc(C(=O)NC4CC4)cc3)cnc12 [Example 1-151] |  |
| 1 to 10 | CC(C)CNc1nc(-c2ccc(C(=O)N3CCOCC3)cc2)cn2c(-c3ccc(C(=O)NC4CC4)cc3)cnc12 [Example 1-153] |  |
| 1 to 10 | CC(C)CNc1nc(-c2cccc(NC(=O)N3CCN(C)CC3)c2)cn2c(-c3ccc(C(=O)NC4CC4)cc3)cnc12 [Example 1-154] |  |
| 1 to 10 | CC(C)CNc1nc(-c2cccc(NC(=O)N3CCOCC3)c2)cn2c(-c3ccc(C(=O)NC4CC4)cc3)cnc12 [Example 1-155] |  |
| 0.5 to 1 | COCC(=O)Nc1cccc(-c2cn3c(-c4ccc(C(=O)NC5CC5)cc4)cnc3c(NCC(C)C)n2)c1 [Example 1-156] |  |
| 0.5 to 1 | CC(=O)Nc1cccc(-c2cn3c(-c4ccc(C(=O)NC5CC5)cc4)cnc3c(NCC(C)C)n2)c1 [Example 1-157] |  |
| 0.5 to 1 | CC(C)CNc1nc(-c2cccc(NC(=O)CCCN3CCOCC3)c2)cn2c(-c3ccc(C(=O)NC4CC4)cc3)cnc12 [Example 1-158] |  |
| 1 to 10 | CC(C)CNc1nc(-c2cccc(NC(=O)[C@@H](N)CO)c2)cn2c(-c3ccc(C(=O)NC4CC4)cc3)cnc12 [Example 1-159] |  |
| 1 to 10 | CC(C)CNc1nc(-c2ccc(NC(=O)N3CCN(C)CC3)cc2)cn2c(-c3ccc(C(=O)NC4CC4)cc3)cnc12 [Example 1-160] |  |

| IC50 [2] [µM] | SMILES | IC50 [1] [µM] |
| --- | --- | --- |
| 1 to 10 | CC(C)CNc1nc(-c2ccc(NC(=O)N3CCOCC3)cc2)cn2c(-c3ccc(C(=O)NC4CC4)cc3)cnc12 [Example 1-161] |  |
| 1 to 10 | COCC(=O)Nc1ccc(-c2cn3c(-c4ccc(C(=O)NC5CC5)cc4)cnc3c(NCC(C)C)n2)cc1 [Example 1-162] |  |
| 0.5 to 1 | CC(=O)Nc1ccc(-c2cn3c(-c4ccc(C(=O)NC5CC5)cc4)cnc3c(NCC(C)C)n2)cc1 [Example 1-163] |  |
| 1 to 10 | CC(C)CNc1nc(-c2cccc(NCCCN)c2)cn2c(-c3ccc(C(=O)NC4CC4)cc3)cnc12 [Example 1-166] |  |
| 0.5 to 1 | CC(C)CNc1nc(-c2cccc(NC3CCOCC3)c2)cn2c(-c3ccc(C(=O)NC4CC4)cc3)cnc12 [Example 1-167] |  |
| 0.5 to 1 | CC(C)CNc1nc(-c2cccc(NCC3CCN(C)CC3)c2)cn2c(-c3ccc(C(=O)NC4CC4)cc3)cnc12 [Example 1-168] |  |
| 1 to 10 | CC(C)CNc1nc(-c2ccc(NCCCN)cc2)cn2c(-c3ccc(C(=O)NC4CC4)cc3)cnc12 [Example 1-169] |  |
| 1 to 10 | CC(C)CNc1nc(-c2ccc(NC3CCOCC3)cc2)cn2c(-c3ccc(C(=O)NC4CC4)cc3)cnc12 [Example 1-170] |  |
| 0.05 to 0.5 | CC(C)CNc1nc(CCc2ccc(C(=O)O)cc2)cn2c(-c3ccc(C(=O)NC4CC4)cc3)cnc12 [Example 1-175] |  |
| 0.05 to 0.5 | O=C(NC1CC1)c1ccc(-c2cnc3c(NCC4CCOCC4)nc(-c4ccsc4)cn23)cc1 [Example 1-177] |  |
| 0.05 to 0.5 | O=C(NC1CC1)c1ccc(-c2cnc3c(NCC4CCOCC4)nc(-c4ccncc4)cn23)cc1 [Example 1-179] |  |
| 0.5 to 1 | C/C=C/c1cn2c(-c3ccc(C(=O)NC4CC4)cc3)cnc2c(NCC2CCOCC2)n1 [Example 1-243] |  |
| 0.05 to 0.5 | N#Cc1ccc(-c2cn3c(-c4ccc(C(=O)NC5CC5)cc4)cnc3c(NCC3CCOCC3)n2)cn1 [Example 1-244] |  |
| 0.05 to 0.5 | N#Cc1ccc(-c2cn3c(-c4ccc(C(=O)NC5CC5)cc4)cnc3c(NCC3CCOCC3)n2)c(N)c1 [Example 1-245] |  |
| 0.05 to 0.5 | N#Cc1ccc(-c2cn3c(-c4ccc(C(=O)NC5CC5)cc4)cnc3c(NCC3CCOCC3)n2)cc1F [Example 1-246] |  |
| 1 to 10 | O=C(NC1CC1)c1ccc(-c2cnc3c(NCC4CCOCC4)nc(C4=CCNCC4)cn23)cc1 [Example 1-247] |  |
| 1 to 10 | O=C(NC1CC1)c1ccc(-c2cnc3c(NCC4CCOCC4)nc(C=C4CCCCC4)cn23)cc1 [Example 1-248] |  |
| 0.5 to 1 | CC(=O)N1CC=C(c2cn3c(-c4ccc(C(=O)NC5CC5)cc4)cnc3c(NCC3CCOCC3)n2)CC1 [Example 1-249] |  |
| 1 to 10 | O=C(NC1CC1)c1ccc(-c2cnc3c(NCC4CCOCC4)nc(CC4CCCCC4)cn23)cc1 [Example 1-250] |  |
|  | CC(C)CNc1cc(-c2ccccc2)nn2c(-c3ccc(C(=O)NC4CC4)cc3)cnc12 [Example 2-7] | 0.5 to 1 |
| 0.5 to 1 | Cc1nc(C)c(-c2cc(NCC(C)C)c3ncc(-c4ccc(C(=O)NC5CC5)cc4)n3n2)s1 [Example 2-8] |  |
